Assay results: patent US6534637B2, “Synthesis of chlorophenol red glucuronic acid” (Beckman Coulter, Inc., priority 2001, dated 2003)

What was measured:
[1] = target: T1, purified β-glucuronidase (Sigma G-7896) (Escherichia coli, UniProt P05804); assay: Enzyme assay: suitability of the substrate for detecting β-glucuronidase; format: biochemical, E. coli; details: 50 MM sodium phosphate buffer, pH 7.0, 10 mM β-mercaptoethanol, 0.1% Triton X-100
T1 construct: purchased Sigma G-7896
Description: The suitability of the chlorophenol red β-D-glucuronic acid substrate (IVA) for detecting β-glucuronidase in a sample was tested following the procedure of Jefferson et al., PNAS (1986) Vol. 83, 8447-8451. The solid product (IVA) was dissolved in water to a final concentration of approximately 100 mM (red-orange product). An aliquot was added to 50 μM of purified β-glucuronidase (Sigma G-7896) in 50 MM sodium phosphate buffer, pH 7.0, 10 mM β-mercaptoethanol and 0.1% Triton X-100.

[2] = target: T2, E. coli α-D-Glucuronidase (Sigma, G7896) (Escherichia coli, UniProt P05804); assay: Sensitivity of GUD assay (reaction rates by OD, spectrophotometric); format: biochemical
T2 construct: purchased Sigma G7896
T2 sequence (P05804 whole entry): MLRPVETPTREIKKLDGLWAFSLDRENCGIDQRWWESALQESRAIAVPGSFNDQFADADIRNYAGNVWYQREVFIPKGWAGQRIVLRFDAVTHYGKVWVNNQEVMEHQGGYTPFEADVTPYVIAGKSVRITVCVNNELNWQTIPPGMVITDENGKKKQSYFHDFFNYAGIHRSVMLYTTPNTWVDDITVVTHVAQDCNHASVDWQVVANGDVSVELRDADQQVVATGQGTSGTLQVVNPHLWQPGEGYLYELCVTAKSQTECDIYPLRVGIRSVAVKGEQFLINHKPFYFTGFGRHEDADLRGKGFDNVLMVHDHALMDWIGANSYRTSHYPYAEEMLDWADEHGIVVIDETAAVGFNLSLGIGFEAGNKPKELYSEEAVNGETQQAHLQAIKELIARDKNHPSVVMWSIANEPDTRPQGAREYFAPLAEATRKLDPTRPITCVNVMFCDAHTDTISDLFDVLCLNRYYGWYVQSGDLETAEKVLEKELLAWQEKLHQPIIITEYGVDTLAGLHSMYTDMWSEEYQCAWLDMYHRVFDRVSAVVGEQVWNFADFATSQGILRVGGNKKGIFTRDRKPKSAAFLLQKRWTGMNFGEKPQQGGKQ
Description: E. coli […] (Sigma, G7896) was diluted in PBS buffer containing 10 mM DTT and 0.1% Triton X-100 and either substrate p-nitrophenol glucuronide (Sigma N1627) or phenolsulphonphthaleinyl (or chlorophenol red) glucuronide of the present invention. The final concentration of each substrate was1 mM. The final concentration of GUD was 60 pM, 125 pM, 250 pM, 500 pM, or 1000 pM. Readings of Optical Density (OD) were measured at 415 nm for assay with p-nitrophenol glucuronide and at 574 nm for assay with chlorophenol red glucuronide. OD measurements were conducted over 30 minutes at 37° C. in a Beckman DU70 spectrophotometer and the reaction rates were determined in mOD/min. […] Therefore, the sensitivity of the GUD assay utilizing a substrate of the present invention as compared to the sensitivity of GUD assay with a conventional substrate.

[3] = Solubility of the GUD substrates (statement); format: physicochemical; details: for liquid homogeneous assay formats

T1 sequence (P05804 whole entry): as above

O=C1C=C/C(=C(/c2ccc(OC3OC(C(=O)O)[C@@H](O)C(O)C3O)c(Cl)c2)c2ccccc2S(=O)(=O)[O-])C=C1Cl.[Na+] (stereo partly drawn) [IVA, Chlorophenol Red β-D-Glucuronic Acid]
Suitability as substrate: appearance of a violet product with absorbance maximum at 575 nm [1]: suitable for the detection of β-glucuronidase
Reaction rate (mOD/min) relative to the nitrophenol-glucuronide substrate ([2]; each substrate 1 mM, GUD 60-1000 pM, 37° C., 30 minutes, OD at 574 nm vs 415 nm): 5.76 fold
Signal intensity relative to nitro-phenol glucuronide (FIG. 1) ([2]; identical amounts of GUD added to each substrate): about six-fold
Solubility [3]: highly soluble
